The values below come from patent US7125853B2, “Bicyclic carbohydrate compounds useful in the treatment of infections caused by Flaviviridae sp., such as hepatitis C and bovine viral diarrhea viruses” (Kemin Pharma B.V.B.A., priority 2003, dated 2006).

The subject of data set [1] is E. coli ATCC 25922. The data set can be described thus: antibacterial microdilution screening. It counts as cell-based, Escherichia coli. To be noted: 16 hours at 35° C., Mueller-Hinton broth. The method, then:
(§1) Based on the NCCLS documents M7-A4, Vol. 17 No. 2, M27-A, Vol 17 No. 9 and M38-P, Vol 18 No. 13, a microdilution method for conducting the antibacterial and antifungal screenings was developed using a Bioscreen C Analyser (Labsystems, Finland), which is an automated reader-incubator. It measures growth continuously by vertical photometry (optical density), processes the data and provides a print-out of the results. For the bacteria we selected as primary target: Staphylococcus aureus ATCC29213, Enterococcus faecalisATCC 29212, Escherichia coli ATCC 25922 and Pseudomonas aeruginosa ATCC 27853. Candida albicans ATCC 24433 and Cryptococcus neoformans ATCC 90112 were selected as yeast targets. The dermatophyte Trichophyton mentagrophytes ATCC 9533 and the invasive mould Aspergillus fumigatus ATCC 2895 were selected as moulds. All parameters necessary for optimal incubation can be programmed in the Biolink-software (Labsystems, Finland). Incubation for all bacterial screenings was 16 hours at 35° C. The incubation parameters for the screenings against Candida and Cryptococcus were respectively 24 and 48 hours at 35° C., the invasive fungus Aspergillus fumigatus was incubated for 3 days at 30° C. and the dermatophyte T. mentagrophytes was incubated for 5 days at 30° C. As growth media for the bacteria cation adjusted Mueller-Hinton broth (Oxoid, Belgium) was used. A synthetic medium is recommended for fungal susceptibility tests: RPMI 1640, with glutamine, and without bicarbonate and with a pH indicator (Oxoid), supplemented with 1% glucose.25 μl of a 10-fold compound concentration is pipetted into each well. To each 25 μl test compound 225 μl of growth media was added. As measurement tool for the antibacterial and anti-yeast screenings, the area under the growth curve is used, which is automatically determined via the Biolink software. For the screenings against the pathogenic moulds we used endpoint OD-measurement. For internal quality control, reference antibiotics for each micro-organism are incorporated in the set-up of the tests.
Background: In broth dilution the organism is exposed to a series of concentrations in liquid medium.

Data set [2] deals with BVDV strain Pe515. As to the kind of experiment: anti-BVDV activity in MDBK cells (MTS method). Particulars: for anti-viral activity against BVDV (in words): second set of screenings. The format is cell-based, bovine viral diarrhea virus. The method, then: (§2) The compounds were also screened against flaviviruses. Due to the fact that there is no adequate in vitro assay to screen against HCV, we opted to screen against the bovine viral diarrhea virus (BVDV), as it shares many similarities with the hepatitis C virus. Antiviral activity was assessed using the Pe 515 strain of BVDV on Madin Darby bovine kidney cells (MDBK cells). Both antiviral activity and cytotoxicity was determined by means of the MTS method. The EC50 is the concentration required to reduce virus induced cytopathic effect by 50%. The MTC (minimal toxic concentration) was defined as the concentration that caused >=20% reduction in cell metabolism.
On the technique in general: Formazan colour is commonly taken as a measure of viable cells.

The subject of data set [3] is HIV-1 (IIIB). As to the kind of experiment: HIV-1-induced cytopathicity in CEM cell cultures. The format is cell-based, human immunodeficiency virus. Particulars: human lymphocyte CEM cell cultures.
For data set [4], the system named is P. aeruginosa ATCC 27853. As to the kind of experiment: antibacterial microdilution screening. The format is cell-based, Pseudomonas aeruginosa. Particulars: 16 hours at 35° C., Mueller-Hinton broth. How it is done:
as §1

For data set [5], the system named is E. faecalis ATCC 29212. As to the kind of experiment: antibacterial microdilution screening. It counts as cell-based, Enterococcus faecalis. To be noted: 16 hours at 35° C., Mueller-Hinton broth. How it is done: as §1
Data set [6] has as its system VV. It counts as cell-based, vaccinia virus. Particulars: VV-induced cytopathicity, human embryo fibroblast E6SM cell cultures. A general note: Cytopathic effects are the visible damage that an infection or toxin causes in cultured cells.
Data set [7] has as its system Molt4/C8. To be noted: human T-lymphocyte cells, proliferation. An excerpt: (§3) The compounds were also checked for anti-tumor activity via the proliferation of murine leukemia cells (L 1210/0), murine mammary carcinoma cells (FM3A) and human T-lymphocyte cells (Molt4/C8, CEM/0).
Data set [8] relates to L1210/0. To be noted: murine leukemia cells, proliferation.
From the text: as §3

Data set [9] deals with CEM/0. Particulars: human T-lymphocyte cells, proliferation.
From the text: as §3

The subject of data set [10] is FM3A/0. Particulars: murine mammary carcinoma cells, proliferation.
From the text: as §3

Data set [11] concerns T. mentagrophytes ATCC 9533. The data set can be described thus: antifungal microdilution screening. It counts as cell-based, Trichophyton mentagrophytes. To be noted: 5 days at 30° C., RPMI 1640. The method, then: as §1
The subject of data set [12] is L1210/0, FM3A/0, Molt4/C8 and CEM/0. As to the kind of experiment: anti-tumor screening, verdict over all tested cell-lines. It counts as cell-based.
Data set [13] deals with HSV-2 (G). It counts as cell-based, herpes simplex virus. Particulars: HSV-induced cytopathicity, human embryo fibroblast E6SM cell cultures.
Data set [14] has as its system MDBK cells. As to the kind of experiment: cytotoxicity in MDBK cells (MTS method). Particulars: minimal toxic concentration causing >=20% reduction in cell metabolism; highest concentration 100 μg/ml. It counts as cell-based, bovine. The method, then: as §2
For data set [15], the system named is CMV Davis, AD-169. The data set can be described thus: CMV-induced plaque formation in HEL cells. It counts as cell-based, human cytomegalo virus. Particulars: human embryonic lung HEL cells, day 7.
The subject of data set [16] is S. aureus ATCC 29213. As to the kind of experiment: antibacterial microdilution screening. The format is cell-based, Staphylococcus aureus. Particulars: 16 hours at 35° C., Mueller-Hinton broth. How it is done: as §1
For data set [17], the system named is C. neoformans ATCC 90112. The data set can be described thus: antifungal microdilution screening. It counts as cell-based, Cryptococcus neoformans. Particulars: 48 hours at 35° C., RPMI 1640. The method, then: as §1
The subject of data set [18] is HIV-2 (ROD). It counts as cell-based, human immunodeficiency virus. To be noted: HIV-induced cytopathicity, human lymphocyte CEM cell cultures.
The subject of data set [19] is C. albicans ATCC 24433. As to the kind of experiment: antifungal microdilution screening. The format is cell-based, Candida albicans. To be noted: 24 hours at 35° C., RPMI 1640. How it is done:
as §1

The subject of data set [20] is A. fumigatus ATCC 2895. As to the kind of experiment: antifungal microdilution screening. The format is cell-based, Aspergillus fumigatus. Particulars: 3 days at 30° C., RPMI 1640. The method, then:
as §1

Data set [21] relates to HSV-1 (KOS). The format is cell-based, herpes simplex virus. Particulars: HSV-induced cytopathicity, human embryo fibroblast E6SM cell cultures.
The subject of data set [22] is VZV OKA. The format is cell-based, varicella zoster virus.

Converted amounts (≈) assume the structure as drawn.

For `CCCOC1C(Cc2ccccc2)OC2COC(c3ccccc3)OC2C1OCCC` (stereo not shown) [Compound A1], the “MIC E. coli ATCC 25922” value in [1] is >25 µg/mL. In addition, the “anti-viral activity against BVDV (in words)” value (“anti-viral activity” below) in data set [2] is recorded as “significant anti-viral activity”. The “EC50 HIV-1 (IIIB) (CEM)” value in data set [3] was >20 µg/mL. For the same compound, the “MIC P. aeruginosa ATCC 27853” value in [4] is >25 µg/mL. In addition, the “MIC E. faecalis ATCC 29212” value in data set [5] was >25 µg/mL. The “EC50 VV (E6SM)” value in data set [6] is >16 µg/mL. Also, the “IC50 Molt4/C8” value in data set [7] is >200 µg/mL. In addition, the “IC50 L1210/0” value in data set [8] was >200 µg/mL. The “IC50 CEM/0” value in [9] was >200 µg/mL. Besides, the “IC50 FM3A/0” value in data set [10] was >200 µg/mL. Moreover, the “MIC T. mentagrophytes ATCC 9533” value in data set [11] is >25 µg/mL. Also, the “anti-tumor activity against all tested cell-lines (in words)” value in [12] is “No anti-tumor activity”. In data set [13], the “EC50 HSV-2 (G) (E6SM)” value is >16 µg/mL. The “MTC (μg/ml) MDBK” value in data set [14] is reported as >100/>100/>100 μg/ml. Moreover, the “EC50 CMV Davis, AD-169 (HEL)” value in data set [15] was >20 µg/mL. Also, in [16], the “MIC S. aureus ATCC 29213” value was >25 µg/mL. Moreover, in data set [17], the “MIC C. neoformans ATCC 90112” value was >25 µg/mL. Further, the “EC50 HIV-2 (ROD) (CEM)” value in data set [18] is >4 µg/mL. Further, the “MIC C. albicans ATCC 24433” value in data set [19] was >25 µg/mL. The “MIC A. fumigatus ATCC 2895” value in data set [20] was >25 µg/mL. In addition, the “EC50 HSV-1 (KOS) (E6SM)” value in data set [21] is >16 µg/mL.
In the case of `NC(=O)c1ncn([C@@H]2O[C@H](CO)[C@@H](O)[C@H]2O)n1` [Ribavirin, reference compound], the EC50 in data set [2] (Bovine viral diarrhea virus isolates and strains, strain Pe515, MDBK cells, MTS method, values separated by / are independent experiments, read-out: EC50 (μg/ml) BVDV) was 40 µg/mL (≈ 164 µM).
Consider `CCCCOC1C(Cc2ccccc2)OC2COC(c3ccccc3)OC2C1OCCCC` (stereo not shown) [Compound A2], for which, in [1], the “MIC E. coli ATCC 25922” value is >25 µg/mL. Further, the “anti-viral activity” value in [2] was “moderate activity”. Also, the “EC50 HIV-1 (IIIB) (CEM)” value in data set [3] is >20 µg/mL. Moreover, in data set [4], the “MIC P. aeruginosa ATCC 27853” value was >25 µg/mL. Besides, the “MIC E. faecalis ATCC 29212” value in data set [5] was >25 µg/mL. In data set [6], the “EC50 VV (E6SM)” value was >16 µg/mL. Further, the “IC50 Molt4/C8” value in data set [7] worked out at 19 ± 1 µg/mL (≈ 41.8 µM). The “IC50 L1210/0” value in data set [8] is 82 ± 7 µg/mL (≈ 180 µM). The “IC50 CEM/0” value in [9] stood at 27 ± 2 µg/mL (≈ 59.4 µM). For the same compound, in data set [10], the “IC50 FM3A/0” value was found to be 22 ± 0 µg/mL (≈ 48.4 µM). In addition, in data set [11], the “MIC T. mentagrophytes ATCC 9533” value is >25 µg/mL. Further, the “anti-tumor activity against all tested cell-lines (in words)” value in [12] is “moderate anti-tumor activity”. Also, the “EC50 HSV-2 (G) (E6SM)” value in [13] is >16 µg/mL. Besides, the “MTC (μg/ml) MDBK” value in data set [14] is recorded as >100/>100/>100 μg/ml. In addition, in data set [15], the “EC50 CMV Davis, AD-169 (HEL)” value was >20 µg/mL. In addition, the “MIC S. aureus ATCC 29213” value in data set [16] is >25 µg/mL. In data set [17], the “MIC C. neoformans ATCC 90112” value was >25 µg/mL. The “EC50 HIV-2 (ROD) (CEM)” value in data set [18] is >20 µg/mL. For the same compound, in [19], the “MIC C. albicans ATCC 24433” value is >25 µg/mL. Also, in [20], the “MIC A. fumigatus ATCC 2895” value was >25 µg/mL. Also, the “EC50 HSV-1 (KOS) (E6SM)” value in data set [21] is >16 µg/mL.
As for `CC(C)OC1C(c2ccccc2)OC2COC(c3ccccc3)OC2C1OC(C)C` (stereo not shown) [Compound A3], in [1], the “MIC E. coli ATCC 25922” value is >25 µg/mL. Also, the “anti-viral activity” value in [2] is listed as “significant anti-viral activity”. Also, in [2] (strain Pe515, MDBK cells, MTS method, values separated by / are independent experiments), the “EC50 (μg/ml) BVDV” value was < 0.8 µg/mL. Moreover, the “EC50 HIV-1 (IIIB) (CEM)” value in data set [3] was >20 µg/mL. For the same compound, the “MIC P. aeruginosa ATCC 27853” value in data set [4] was >25 µg/mL. Moreover, the “MIC E. faecalis ATCC 29212” value in [5] is >25 µg/mL. In addition, in data set [11], the “MIC T. mentagrophytes ATCC 9533” value is >25 µg/mL. The “EC50 HSV-2 (G) (E6SM)” value in data set [13] was >8 µg/mL. Besides, the “MTC (μg/ml) MDBK” value in data set [14] is >100 µg/mL. The “EC50 CMV Davis, AD-169 (HEL)” value in data set [15] was >5 µg/mL. Also, the “MIC S. aureus ATCC 29213” value in data set [16] is >25 µg/mL. The “MIC C. neoformans ATCC 90112” value in [17] is >25 µg/mL. In [18], the “EC50 HIV-2 (ROD) (CEM)” value is >4 µg/mL. Also, the “MIC C. albicans ATCC 24433” value in data set [19] is >25 µg/mL. In addition, the “EC50 VZV (HEL) OKA” value in data set [22] (VZV-induced plaque formation, human embryonic lung HEL cell cultures, OKA strain) was found to be 1.1 µg/mL (≈ 2.67 µM). In addition, in data set [22] (first set of screenings), the “activity against VZV (in words)” value is on record as “showed activity against VZV”. In addition, the “MIC A. fumigatus ATCC 2895” value in data set [20] is >25 µg/mL. Also, the “EC50 HSV-1 (KOS) (E6SM)” value in data set [21] was >8 µg/mL.
